# Laboratory results published in publication PMC11840605, “Crystallographic and Thermodynamic Evidence of Negative Coupling in the Flavin-Dependent Tryptophan Halogenases AbeH and BorH” (ACS Omega, 2025).
# Where “and” joins values, the source holds several entries; their conditions need not be identical. Identical values can stand only once. Entries after “also recorded” stand apart in the source; their conditions may differ.
# Experiments:
# BorH [1] = target: T1, BorH (uncultured bacterium, UniProt M9QSI0); experiment: Quenching of BorH intrinsic Trp fluorescence upon FAD titration; set-up: species or system uncultured soil actinomycetes; settings: 100 nM BorH; read-out: KD, FAD binding to BorH, BorH intrinsic Trp fluorescence
# Method: (§1) Intrinsic tryptophan fluorescence spectroscopy was used to measure FAD binding to AbeH and BorH in 20 mM HEPES pH 7.7- and 50 mM sodium citrate. FAD was prepared in the same buffer and its concentration was determined spectrophotometrically as described earlier. Fluorescence experiments were performed as described earlier. FAD binding to apo-AbeH or apo-BorH was performed in duplicate with 100 nM fixed AbeH or BorH with variable FAD concentrations up to 30 and 70 μM, respectively. AbeH/FAD binding was monitored using excitation at 295 nm and emission at 328 nm. BorH/FAD binding was monitored using excitation at 290 nm and emission at 326 nm. Inner filter effect corrected fluorescence intensities were plotted against quenched intrinsic tryptophan fluorescence of AbeH and BorH. Data were fitted by nonlinear regression to eq 1 using GraphPad Prism 8.0.
# (§2) Figure S9: FAD binding determined by quenching of BorH and AbeH intrinsic Trp fluorescence.
# (§3) A. Variable concentrations of FAD (0-70 µM) were incubated with 100 nM BorH and Trp fluorescence was measured with excitation at 290 nm and emission at 326 nm. […]
# (§4) B. Variable concentrations of FAD (0-30 µM) were incubated with 100 nM AbeH and Trp fluorescence was measured […] with excitation at 295 nm and emission at 328 nm. […]
# BorF = settings: read-out: KD, flavin binding to BorF; cited from earlier work
# AbeH [2] = target: T2, AbeH (uncultured bacterium, UniProt F6LWA5); experiment: Quenching of AbeH intrinsic Trp fluorescence upon FAD titration; set-up: species or system uncultured soil actinomycetes; settings: FAD binding to AbeH, 100 nM AbeH
# Method: as §1, §2, §3, §4
# AbeF = settings: read-out: KD, flavin binding to AbeF; cited from earlier work
# BorH [3] = target: T1, BorH; experiment: Isothermal titration calorimetry, ligand into BorH; assay type: binding, uncultured soil actinomycetes
# Method: (§5) Solutions of AbeH, BorH, FAD (Chem-Implex), and Trp (Acros Organics) were prepared in the same buffer and degassed under vacuum at 30 °C for 20 min before loading in the syringe or cell. To analyze formation of binary complexes, AbeH or BorH was placed inside the cell, and ligand (FAD or Trp) was injected. For ternary complex titration, one ligand was preincubated with the macromolecule for 30 min at 30 °C to form binary complexes of AbeH/FAD, AbeH/Trp, BorH/FAD, and BorH/Trp before titrating with the second ligand. To test FADH2 binding to AbeH and BorH, FAD was reduced to FADH2 using sodium dithionite and stored under N2. Formation of FADH2 by sodium dithionite was verified using absorbance and fluorescence spectrophotometry.
# (§6) ITC experiments were performed with reference power set to 10 μcal/s and Milli-Q water in the reference cell. All experiments were done with a pretitration delay of 20 min, a 5 min interval between injections, and a filter period of 2 s in high feedback gain mode. All experiments were performed at 310 rpm to mix the components in cell and titrant. All other VP-ITC instrumental parameters were set to default settings. Heats of dilution for all titrants were measured by titrating ligand into buffer for binary complex titrations, and by titrating ligand into a solution containing the other ligand but no protein for ternary complex titration.
# (§7) Titrations were analyzed by manually integrating each injection, subtracting the heat of dilution, and carrying out nonlinear least-squares fit of the calorimetric binding data to a one-site model using Origin 7.0 (Origin Lab). Trp binding experiments were subtracted by point-by-point heat of dilution, and FAD and FADH2 binding experiments were subtracted using the mean heat of the last three injections. For the Trp binding data, n was fixed to 1 based on expected stoichiometry of 1:1 based on FDH crystal structures and as proposed for lower c-value titrations in the literature.[23],[25],[82] The other parameters were not constrained during fitting.
# AbeH [4] = target: T2, AbeH; experiment: Isothermal titration calorimetry, ligand into AbeH; assay type: binding, uncultured soil actinomycetes
# Method: as §5, with “ITC experiments were performed using a VP-ITC isothermal titration calorimeter (MicroCal) in 20 mM HEPES pH 7.5, 350 mM NaCl, 1 mM ethylenediamine tetraacetic acid (EDTA) and 15% (v/v) glycerol. Solutions” for “Solutions”
# as §6
# 1.2 mM FAD (2 μL/1 and 5 μL/19 injections) into 18 μM AbeH (Figure 4A)
# 0.12 mM FADH2 (2 μL/1 and 15 μL/19 injections) into 7 μM AbeH in the presence of sodium dithionite (Figure 4B)
# 1.4 mM Trp (3 μL/1 and 10 μL/29 injections) into 43 μM AbeH (Figure S7)
# 16 mM Trp (2 μL/1 and 10 μL/29 injections) into 18 μM AbeH (Figure 5A)
# as §7
# BorH/FAD = experiment: Isothermal titration calorimetry, Trp into BorH preincubated with FAD; assay type: binding, uncultured soil actinomycetes
# Method: as §5, with “ITC experiments were performed using a VP-ITC isothermal titration calorimeter (MicroCal) in 20 mM HEPES pH 7.5, 350 mM NaCl, 1 mM ethylenediamine tetraacetic acid (EDTA) and 15% (v/v) glycerol. Solutions” for “Solutions”, “To test FADH2 binding to AbeH and BorH, FAD was reduced to FADH2 using sodium dithionite and stored under N2.” left out
# ITC experiments were performed with reference power set to 10 μcal/s and Milli-Q water in the reference cell. […] Heats of dilution for all titrants were measured by titrating ligand into buffer for binary complex titrations, and by titrating ligand into a solution containing the other ligand but no protein for ternary complex titration. […]
# Titrations were analyzed by manually integrating each injection, subtracting the heat of dilution, and carrying out nonlinear least-squares fit of the calorimetric binding data to a one-site model using Origin 7.0 (Origin Lab). […]
# BorH [5] = target: T1, BorH; settings: previously shown; cited from earlier work
# [6] = ITC, read-out: KD, binding to BorH, ITC
# T2 sequence (F6LWA5 entry or part of it): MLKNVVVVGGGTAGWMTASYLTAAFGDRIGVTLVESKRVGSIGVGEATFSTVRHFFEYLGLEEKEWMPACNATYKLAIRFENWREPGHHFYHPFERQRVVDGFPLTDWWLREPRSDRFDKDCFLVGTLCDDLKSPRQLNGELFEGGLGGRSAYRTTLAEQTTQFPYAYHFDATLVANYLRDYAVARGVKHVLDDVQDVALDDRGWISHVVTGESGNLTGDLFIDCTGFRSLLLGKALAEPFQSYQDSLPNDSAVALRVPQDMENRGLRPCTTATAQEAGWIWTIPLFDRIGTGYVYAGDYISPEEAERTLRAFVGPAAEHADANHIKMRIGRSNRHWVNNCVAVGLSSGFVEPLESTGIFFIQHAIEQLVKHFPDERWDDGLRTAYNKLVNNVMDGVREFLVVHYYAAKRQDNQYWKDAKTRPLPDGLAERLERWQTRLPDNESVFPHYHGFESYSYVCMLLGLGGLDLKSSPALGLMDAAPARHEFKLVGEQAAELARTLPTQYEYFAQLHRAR
# T1 sequence (M9QSI0 1-529): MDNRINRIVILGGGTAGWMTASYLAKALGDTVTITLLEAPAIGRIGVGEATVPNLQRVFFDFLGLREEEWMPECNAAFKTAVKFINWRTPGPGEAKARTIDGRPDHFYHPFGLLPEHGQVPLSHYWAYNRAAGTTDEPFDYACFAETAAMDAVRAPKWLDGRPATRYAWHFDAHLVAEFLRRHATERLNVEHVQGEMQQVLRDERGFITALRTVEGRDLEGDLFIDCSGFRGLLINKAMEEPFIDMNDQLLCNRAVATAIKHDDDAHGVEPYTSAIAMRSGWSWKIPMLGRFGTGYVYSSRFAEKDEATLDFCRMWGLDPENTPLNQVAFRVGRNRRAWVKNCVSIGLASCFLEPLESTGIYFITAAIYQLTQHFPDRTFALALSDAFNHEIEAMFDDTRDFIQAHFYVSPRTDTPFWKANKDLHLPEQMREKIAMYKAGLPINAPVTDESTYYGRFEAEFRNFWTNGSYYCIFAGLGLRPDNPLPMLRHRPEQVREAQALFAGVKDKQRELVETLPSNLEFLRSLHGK
smiles,measurement,setting,value
Cc1cc2nc3c(=O)[nH]c(=O)nc-3n(C[C@H](O)[C@H](O)[C@H](O)COP(=O)(O)OP(=O)(O)OC[C@H]3O[C@@H](n4cnc5c(N)ncnc54)[C@H](O)[C@@H]3O)c2cc1C [FAD],Kd,BorH [1],9.1 ± 2.4 µM
same,Kd,BorF,0.1 µM
same,Kd,AbeH [2],0.96 µM and 1 µM
same,Kd,AbeF,0.8 µM
same,Kd,BorH [3]; [6],13 ± 3.3 µM
same,"-TDS (-TΔS, ITC, Table S3)",BorH [3]; cell BorH,4.7 kcal/mol
same,"DG (ΔG, ITC, Table S3)",BorH [3]; cell BorH,-6.7 kcal/mol
same,"DH (ΔH, ITC, Table S3)",BorH [3]; cell BorH,-11.4 ± 0.4 kcal/mol
same,"n (ITC, Table S3)",BorH [3]; cell BorH,1.1 ± 0.4
same,Kd,"AbeH [4]; ITC, read-out: KD, binding to AbeH, ITC",1.2 ± 0.4 µM
same,"-TDS (-TΔS, ITC, Table S3)",AbeH [4]; cell AbeH,-3.6 kcal/mol
same,"DG (ΔG, ITC, Table S3)",AbeH [4]; cell AbeH,-8.2 kcal/mol
same,"DH (ΔH, ITC, Table S3)",AbeH [4]; cell AbeH,-4.6 ± 0.4 kcal/mol
same,"n (ITC, Table S3)",AbeH [4]; cell AbeH,0.93 ± 0.05
"N[C@@H](Cc1c[nH]c2ccccc12)C(=O)O [Tryptophan, L-tryptophan]","Binding of Trp to preincubated BorH/FAD by ITC, in words","BorH/FAD; 21 mM Trp into 8 μM BorH preincubated with 5 mM FAD, listed as Trp",No binding was observed; also recorded: no evidence of Trp binding
same,"KD, Trp binding to BorH/FAD, ITC",BorH/FAD; BorH preincubated with FAD,no binding
same,Trp affinity of BorH higher than that of AbeH,BorH [3],2 fold
same,Trp affinity of BorH lower than the FAD affinity,BorH [3],30 ×
same,Kd,BorH [3]; [6],430 ± 60 µM
same,"-TDS (-TΔS, ITC, Table S3)",BorH [3]; cell BorH,-0.5 kcal/mol
same,"DG (ΔG, ITC, Table S3)",BorH [3]; cell BorH,-4.6 kcal/mol
same,"DH (ΔH, ITC, Table S3)",BorH [3]; cell BorH,-4.1 ± 0.3 kcal/mol
same,Kd,"BorH [3]; cell BorH, read-out: KD (ITC, Table S3)",435 µM
same,Kd,"BorH [3]; one-site model, n fixed to 1, read-out: KD for Trp/BorH, ITC",400 µM
same,Trp affinity of AbeH lower than the FAD affinity,AbeH [4],500 ×
same,Kd,"AbeH [4]; KD (ITC, Table S3), cell AbeH",833 µM
same,Kd,"AbeH [4]; KD for Trp/AbeH, ITC, one-site model, n fixed to 1",800 µM
same,"Heat of binding, Trp titrated into AbeH at low molar ratios","AbeH [4]; Trp:AbeH molar ratios between 0-9, 1.4 mM Trp into 43 μM AbeH",no significant heat of binding detected
same,"-TDS (-TΔS, ITC, Table S3)",AbeH [4]; cell AbeH,0.4 kcal/mol
same,"DG (ΔG, ITC, Table S3)",AbeH [4]; cell AbeH,-4.3 kcal/mol
same,"DH (ΔH, ITC, Table S3)",AbeH [4]; cell AbeH,-4.7 ± 0.4 kcal/mol
same,"Halogenation of the substrate by BorH, in words",BorH [5],brominate and chlorinate
